Experiments:
Assay in all cases: radiometric filter-binding kinase assay
[1] = tested on: AKT1 (human), P31749 [S473D]
BTK (human) = BTK (human) (UniProt Q06187); conditions: compound 10.0 µM
CSNK2A1 (human) = CSNK2A1 (human) (UniProt P68400)
CaMK1 (human) = CaMK1 (human) (UniProt Q14012)
DAPK1 (human) = DAPK1 (human) (UniProt P53355); conditions: compound 10.0 µM
DYRK1A (human) = DYRK1A (human) (UniProt Q13627)
DYRK2 (human) = DYRK2 (human) (UniProt Q92630)
DYRK3 (human) = DYRK3 (human) (UniProt O43781)
EEF2K (human) = EEF2K (human) (UniProt O00418)
EEF2K (human), sequence (O00418 whole entry, looked up): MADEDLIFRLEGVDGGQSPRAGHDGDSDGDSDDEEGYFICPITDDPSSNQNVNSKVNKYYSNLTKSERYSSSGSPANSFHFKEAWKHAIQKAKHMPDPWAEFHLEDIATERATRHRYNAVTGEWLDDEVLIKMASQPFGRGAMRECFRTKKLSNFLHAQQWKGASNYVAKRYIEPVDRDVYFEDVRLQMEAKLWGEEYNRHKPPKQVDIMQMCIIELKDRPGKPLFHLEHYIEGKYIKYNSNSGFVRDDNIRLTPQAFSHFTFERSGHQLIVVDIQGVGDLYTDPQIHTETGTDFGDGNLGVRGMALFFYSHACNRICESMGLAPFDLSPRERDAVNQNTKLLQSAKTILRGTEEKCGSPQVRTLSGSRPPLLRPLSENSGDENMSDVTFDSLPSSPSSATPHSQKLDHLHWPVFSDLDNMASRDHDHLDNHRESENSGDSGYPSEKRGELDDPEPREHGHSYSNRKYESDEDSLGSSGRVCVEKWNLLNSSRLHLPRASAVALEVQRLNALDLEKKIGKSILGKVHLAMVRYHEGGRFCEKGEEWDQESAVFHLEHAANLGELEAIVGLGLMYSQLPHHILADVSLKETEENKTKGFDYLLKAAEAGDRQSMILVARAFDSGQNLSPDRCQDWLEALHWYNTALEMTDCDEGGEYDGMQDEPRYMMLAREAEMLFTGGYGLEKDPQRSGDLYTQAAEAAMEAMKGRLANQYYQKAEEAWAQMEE

EPHA2 (human) = EPHA2 (human) (UniProt P29317); conditions: compound 10.0 µM
EPHB1 (human) = EPHB1 (human) (UniProt P54762); conditions: compound 10.0 µM
EPHB3 (human) = EPHB3 (human) (UniProt P54753); conditions: compound 10.0 µM
ERBB4 (human) = ERBB4 (human) (UniProt Q15303); conditions: compound 10.0 µM
HIPK1 (human) = HIPK1 (human) (UniProt Q86Z02); conditions: compound 10.0 µM
HIPK2 (human) = HIPK2 (human) (UniProt Q9H2X6)
HIPK3 (human) = HIPK3 (human) (UniProt Q9H422)
IKBKE (human) = IKBKE (human) (UniProt Q14164); conditions: compound 10.0 µM
LCK (mouse) = conditions: accession and sequence are those of the human protein
MAP2K6 (human) = MAP2K6 (human) (UniProt P52564); conditions: compound 10.0 µM
MAP3K9 (human) = MAP3K9 (human) (UniProt P80192); conditions: compound 10.0 µM
MAPK11 (human) = MAPK11 (human) (UniProt Q15759)
MAPK11 (human), sequence (Q15759 whole entry, looked up): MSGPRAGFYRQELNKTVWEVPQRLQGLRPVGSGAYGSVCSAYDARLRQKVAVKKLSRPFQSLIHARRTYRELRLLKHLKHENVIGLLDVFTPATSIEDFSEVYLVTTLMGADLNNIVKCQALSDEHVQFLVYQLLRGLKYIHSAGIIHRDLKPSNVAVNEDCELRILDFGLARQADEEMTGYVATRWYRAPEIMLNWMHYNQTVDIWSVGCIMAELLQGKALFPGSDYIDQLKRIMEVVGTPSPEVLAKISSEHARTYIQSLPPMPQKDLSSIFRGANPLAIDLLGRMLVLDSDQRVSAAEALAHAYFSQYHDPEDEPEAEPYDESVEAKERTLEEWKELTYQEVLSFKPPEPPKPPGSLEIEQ

MAPK13 (human) = MAPK13 (human) (UniProt O15264)
MAPK13 (human), sequence (O15264 whole entry, looked up): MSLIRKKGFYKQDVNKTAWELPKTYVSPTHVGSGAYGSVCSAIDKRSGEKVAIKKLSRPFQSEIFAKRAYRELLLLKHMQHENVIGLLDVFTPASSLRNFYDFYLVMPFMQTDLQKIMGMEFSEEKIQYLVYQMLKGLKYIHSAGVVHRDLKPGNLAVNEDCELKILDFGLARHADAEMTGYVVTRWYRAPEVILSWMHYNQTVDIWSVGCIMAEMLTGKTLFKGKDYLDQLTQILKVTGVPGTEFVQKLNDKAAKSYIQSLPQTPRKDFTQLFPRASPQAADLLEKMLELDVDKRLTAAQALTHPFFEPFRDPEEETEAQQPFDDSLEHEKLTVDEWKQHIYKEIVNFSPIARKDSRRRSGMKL

MAPK14 (human) = MAPK14 (human) (UniProt Q16539)
MAPKAPK5 (human) = MAPKAPK5 (human) (UniProt Q8IW41)
MARK1 (human) = MARK1 (human) (UniProt Q9P0L2); conditions: compound 10.0 µM
MARK3 (human) = MARK3 (human) (UniProt P27448)
MST4 (human) = MST4 (human) (UniProt Q9P289); conditions: compound 10.0 µM
NEK6 (human) = NEK6 (human) (UniProt Q9HC98)
NUAK1 (human) = NUAK1 (human) (UniProt O60285); conditions: compound 10.0 µM
PAK4 (human) = PAK4 (human) (UniProt O96013)
PAK6 (human) = PAK6 (human) (UniProt Q9NQU5)
PAK6 (human), sequence (Q9NQU5 whole entry, looked up): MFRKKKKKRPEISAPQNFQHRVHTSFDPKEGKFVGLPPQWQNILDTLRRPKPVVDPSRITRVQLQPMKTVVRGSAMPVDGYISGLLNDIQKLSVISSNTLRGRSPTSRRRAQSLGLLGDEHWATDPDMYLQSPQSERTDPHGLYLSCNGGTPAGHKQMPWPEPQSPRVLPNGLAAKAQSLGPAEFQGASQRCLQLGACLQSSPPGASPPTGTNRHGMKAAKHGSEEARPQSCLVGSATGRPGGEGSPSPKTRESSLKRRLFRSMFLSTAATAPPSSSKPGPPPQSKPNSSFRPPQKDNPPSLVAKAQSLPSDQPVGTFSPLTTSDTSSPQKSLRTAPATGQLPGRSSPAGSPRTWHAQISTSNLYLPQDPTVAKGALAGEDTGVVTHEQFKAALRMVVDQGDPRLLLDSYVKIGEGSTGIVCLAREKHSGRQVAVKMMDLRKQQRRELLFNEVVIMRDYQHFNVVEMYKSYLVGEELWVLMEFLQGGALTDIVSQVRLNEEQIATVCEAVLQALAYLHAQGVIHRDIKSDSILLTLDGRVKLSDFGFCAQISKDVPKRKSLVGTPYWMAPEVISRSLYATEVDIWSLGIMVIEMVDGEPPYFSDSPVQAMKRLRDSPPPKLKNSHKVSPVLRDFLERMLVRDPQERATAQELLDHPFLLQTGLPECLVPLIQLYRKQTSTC

PAK7 (human) = PAK7 (human) (UniProt Q9P286)
PAK7 (human), sequence (Q9P286 whole entry, looked up): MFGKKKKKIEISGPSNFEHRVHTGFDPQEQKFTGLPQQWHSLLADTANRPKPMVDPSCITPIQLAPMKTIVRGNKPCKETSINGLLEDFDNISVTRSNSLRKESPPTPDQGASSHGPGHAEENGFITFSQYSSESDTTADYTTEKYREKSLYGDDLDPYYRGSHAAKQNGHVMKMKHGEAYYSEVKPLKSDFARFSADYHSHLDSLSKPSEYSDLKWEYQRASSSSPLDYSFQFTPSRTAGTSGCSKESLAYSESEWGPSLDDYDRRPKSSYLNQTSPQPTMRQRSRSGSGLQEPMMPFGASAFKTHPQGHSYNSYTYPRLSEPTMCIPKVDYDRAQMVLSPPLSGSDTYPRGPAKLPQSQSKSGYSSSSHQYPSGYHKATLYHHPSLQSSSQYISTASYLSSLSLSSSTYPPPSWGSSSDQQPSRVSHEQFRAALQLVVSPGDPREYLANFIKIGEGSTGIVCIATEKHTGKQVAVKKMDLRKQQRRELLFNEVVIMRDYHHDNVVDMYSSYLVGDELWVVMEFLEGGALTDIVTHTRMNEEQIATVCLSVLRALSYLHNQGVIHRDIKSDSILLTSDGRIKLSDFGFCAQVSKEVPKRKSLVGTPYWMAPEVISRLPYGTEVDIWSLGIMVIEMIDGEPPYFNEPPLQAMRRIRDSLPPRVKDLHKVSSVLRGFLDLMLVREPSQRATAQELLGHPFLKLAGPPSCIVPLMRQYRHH

PRKCZ (human) = PRKCZ (human) (UniProt Q05513)
ROCK2 (rat) = conditions: accession and sequence are those of the human protein
RPS6KA5 KD1 KD2 (human) = RPS6KA5 KD1 KD2 (human) (UniProt O75582)
RPS6KA5 KD1 KD2 (human), sequence (O75582 whole entry, looked up): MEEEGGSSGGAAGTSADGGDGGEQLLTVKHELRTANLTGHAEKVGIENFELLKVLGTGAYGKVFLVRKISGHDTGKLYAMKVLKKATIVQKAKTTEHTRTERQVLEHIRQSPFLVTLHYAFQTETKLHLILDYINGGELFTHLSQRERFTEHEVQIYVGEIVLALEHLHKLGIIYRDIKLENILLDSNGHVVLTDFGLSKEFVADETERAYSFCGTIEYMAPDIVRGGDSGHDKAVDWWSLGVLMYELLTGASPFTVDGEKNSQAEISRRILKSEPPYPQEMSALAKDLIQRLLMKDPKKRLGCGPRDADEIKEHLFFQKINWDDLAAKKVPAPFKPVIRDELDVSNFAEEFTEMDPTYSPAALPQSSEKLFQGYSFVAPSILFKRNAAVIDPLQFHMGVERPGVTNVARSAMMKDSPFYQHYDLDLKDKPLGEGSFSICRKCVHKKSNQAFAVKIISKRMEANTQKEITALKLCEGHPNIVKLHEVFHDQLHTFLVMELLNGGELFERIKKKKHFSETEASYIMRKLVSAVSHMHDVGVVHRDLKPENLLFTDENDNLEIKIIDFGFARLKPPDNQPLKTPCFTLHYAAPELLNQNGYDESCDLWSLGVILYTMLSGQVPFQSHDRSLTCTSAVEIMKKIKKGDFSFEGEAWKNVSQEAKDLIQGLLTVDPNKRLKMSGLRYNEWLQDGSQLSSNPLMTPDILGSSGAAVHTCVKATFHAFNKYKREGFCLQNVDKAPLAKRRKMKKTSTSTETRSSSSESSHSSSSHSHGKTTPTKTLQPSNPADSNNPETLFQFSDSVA

TAOK1 (human) = TAOK1 (human) (UniProt Q7L7X3); conditions: compound 10.0 µM

AKT1 (human), P31749 [S473D], sequence (P31749 whole entry S473D, looked up): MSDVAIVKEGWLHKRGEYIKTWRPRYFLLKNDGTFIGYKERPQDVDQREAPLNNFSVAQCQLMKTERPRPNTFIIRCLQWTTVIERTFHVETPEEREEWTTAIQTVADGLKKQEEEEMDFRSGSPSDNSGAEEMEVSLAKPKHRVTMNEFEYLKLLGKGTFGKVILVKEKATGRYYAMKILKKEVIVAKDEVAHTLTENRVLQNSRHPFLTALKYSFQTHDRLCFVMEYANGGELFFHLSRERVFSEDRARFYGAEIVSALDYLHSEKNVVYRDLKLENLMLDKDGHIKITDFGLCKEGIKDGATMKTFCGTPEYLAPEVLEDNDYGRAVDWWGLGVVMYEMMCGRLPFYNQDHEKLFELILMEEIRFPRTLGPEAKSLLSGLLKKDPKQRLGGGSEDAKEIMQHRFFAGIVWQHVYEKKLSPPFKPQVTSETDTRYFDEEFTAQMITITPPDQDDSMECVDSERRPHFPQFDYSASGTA
CaMK1 (human), sequence (Q14012 whole entry, looked up): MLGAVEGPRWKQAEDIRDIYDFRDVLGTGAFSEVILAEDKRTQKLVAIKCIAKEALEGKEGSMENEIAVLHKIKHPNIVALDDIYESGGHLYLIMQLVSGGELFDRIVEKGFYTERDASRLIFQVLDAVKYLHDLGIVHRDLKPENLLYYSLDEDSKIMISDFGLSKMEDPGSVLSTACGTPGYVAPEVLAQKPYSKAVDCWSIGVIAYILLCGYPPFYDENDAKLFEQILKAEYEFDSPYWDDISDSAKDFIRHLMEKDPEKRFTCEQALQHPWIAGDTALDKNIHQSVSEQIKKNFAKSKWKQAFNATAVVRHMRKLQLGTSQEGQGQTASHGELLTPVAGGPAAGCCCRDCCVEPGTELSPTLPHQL
CSNK2A1 (human), sequence (P68400 whole entry, looked up): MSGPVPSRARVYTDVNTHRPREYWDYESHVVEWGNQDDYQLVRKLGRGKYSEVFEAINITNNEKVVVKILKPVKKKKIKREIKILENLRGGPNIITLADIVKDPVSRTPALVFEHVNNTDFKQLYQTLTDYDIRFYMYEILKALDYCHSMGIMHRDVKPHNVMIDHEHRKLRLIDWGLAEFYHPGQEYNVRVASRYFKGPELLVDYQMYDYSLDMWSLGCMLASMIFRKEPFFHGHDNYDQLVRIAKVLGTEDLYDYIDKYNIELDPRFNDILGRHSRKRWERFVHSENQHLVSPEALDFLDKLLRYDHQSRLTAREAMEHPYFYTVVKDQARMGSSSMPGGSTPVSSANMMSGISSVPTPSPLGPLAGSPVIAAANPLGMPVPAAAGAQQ

Structure (SMILES): Oc1ccc(/C=C/c2cc(O)cc(O)c2)cc1
- residual activity ([1]; compound 1.0 µM): 82%
- residual activity ([1]; compound 10.0 µM): 89%
- residual activity ([1]; compound 50.0 µM): 63%
- residual activity (BTK (human)): 75%
- residual activity (CSNK2A1 (human); compound 1.0 µM): 101%
- residual activity (CSNK2A1 (human); compound 10.0 µM): 82%
- residual activity (CSNK2A1 (human); compound 50.0 µM): 49%
- residual activity (CaMK1 (human); compound 1.0 µM): 75%
- residual activity (CaMK1 (human); compound 10.0 µM): 73%
- residual activity (CaMK1 (human); compound 50.0 µM): 38%
- residual activity (DAPK1 (human)): 62%
- residual activity (DYRK1A (human); compound 1.0 µM): 94%
- residual activity (DYRK1A (human); compound 10.0 µM): 61%
- residual activity (DYRK1A (human); compound 50.0 µM): 17%
- residual activity (DYRK2 (human); compound 1.0 µM): 40%
- residual activity (DYRK2 (human); compound 10.0 µM): 15%
- residual activity (DYRK2 (human); compound 50.0 µM): 1%
- residual activity (DYRK3 (human); compound 1.0 µM): 38%
- residual activity (DYRK3 (human); compound 10.0 µM): 8%
- residual activity (DYRK3 (human); compound 50.0 µM): 2%
- residual activity (EEF2K (human); compound 1.0 µM): 95%
- residual activity (EEF2K (human); compound 10.0 µM): 69%
- residual activity (EEF2K (human); compound 50.0 µM): 87%
- residual activity (EPHA2 (human)): 81%
- residual activity (EPHB1 (human)): 97%
- residual activity (EPHB3 (human)): 88%
- residual activity (ERBB4 (human)): 59%
- residual activity (HIPK1 (human)): 48%
- residual activity (HIPK2 (human); compound 1.0 µM): 60%
- residual activity (HIPK2 (human); compound 10.0 µM): 30%
- residual activity (HIPK2 (human); compound 50.0 µM): 3%
- residual activity (HIPK3 (human); compound 1.0 µM): 93%
- residual activity (HIPK3 (human); compound 10.0 µM): 41%
- residual activity (HIPK3 (human); compound 50.0 µM): 12%
- residual activity (IKBKE (human)): 59%
- residual activity (LCK (mouse); compound 1.0 µM): 115%
- residual activity (LCK (mouse); compound 10.0 µM): 97%
- residual activity (LCK (mouse); compound 50.0 µM): 59%
- residual activity (MAP2K6 (human)): 87%
- residual activity (MAP3K9 (human)): 44%
- residual activity (MAPK11 (human); compound 1.0 µM): 112%
- residual activity (MAPK11 (human); compound 10.0 µM): 93%
- residual activity (MAPK11 (human); compound 50.0 µM): 108%
- residual activity (MAPK13 (human); compound 1.0 µM): 95%
- residual activity (MAPK13 (human); compound 10.0 µM): 91%
- residual activity (MAPK13 (human); compound 50.0 µM): 72%
- residual activity (MAPK14 (human); compound 1.0 µM): 95%
- residual activity (MAPK14 (human); compound 10.0 µM): 97%
- residual activity (MAPK14 (human); compound 50.0 µM): 75%
- residual activity (MAPKAPK5 (human); compound 1.0 µM): 105%
- residual activity (MAPKAPK5 (human); compound 10.0 µM): 85%
- residual activity (MAPKAPK5 (human); compound 50.0 µM): 56%
- residual activity (MARK1 (human)): 96%
- residual activity (MARK3 (human); compound 1.0 µM): 99%
- residual activity (MARK3 (human); compound 10.0 µM): 82%
- residual activity (MARK3 (human); compound 50.0 µM): 41%
- residual activity (MST4 (human)): 68%
- residual activity (NEK6 (human); compound 1.0 µM): 104%
- residual activity (NEK6 (human); compound 10.0 µM): 96%
- residual activity (NEK6 (human); compound 50.0 µM): 87%
- residual activity (NUAK1 (human)): 68%
- residual activity (PAK4 (human); compound 1.0 µM): 85%
- residual activity (PAK4 (human); compound 10.0 µM): 80%
- residual activity (PAK4 (human); compound 50.0 µM): 67%
- residual activity (PAK6 (human); compound 1.0 µM): 108%
- residual activity (PAK6 (human); compound 10.0 µM): 106%
- residual activity (PAK6 (human); compound 50.0 µM): 100%
- residual activity (PAK7 (human); compound 1.0 µM): 102%
- residual activity (PAK7 (human); compound 10.0 µM): 83%
- residual activity (PAK7 (human); compound 50.0 µM): 75%
- residual activity (PRKCZ (human); compound 1.0 µM): 128%
- residual activity (PRKCZ (human); compound 10.0 µM): 105%
- residual activity (PRKCZ (human); compound 50.0 µM): 99%
- residual activity (ROCK2 (rat); compound 1.0 µM): 125%
- residual activity (ROCK2 (rat); compound 10.0 µM): 83%
- residual activity (ROCK2 (rat); compound 50.0 µM): 21%
- residual activity (RPS6KA5 KD1 KD2 (human); compound 1.0 µM): 80%
- residual activity (RPS6KA5 KD1 KD2 (human); compound 10.0 µM): 65%
- residual activity (RPS6KA5 KD1 KD2 (human); compound 50.0 µM): 16%
- residual activity (TAOK1 (human)): 32%

— the kinase profiling compilation of Christmann-Franck et al. (2016)
